The numbers were not newly measured in US8535717B2, “Pharmaceutical composition” (Sun Pharma Advanced Research Company Limited, priority 2005, dated 2013), which cites them from elsewhere.

Structures are written as SMILES.

`CC[C@@H](C(N)=O)N1CCCC1=O` [levetiracetam]: for the setting “cannot be decreased by altering pH of the microenvironment”, the solubility is 104 g/100 ml. Moreover, where the note is “water”, the solubility in water was 104 g in 100 ml.
